Data: ChEMBL document CHEMBL5465560, “Selectivity Literature for EUbOPEN Chemogenomic Library” (2024)
Each block holds one compound with its values, some of them ahead of it.

Assays:
[1] = target: Phosphatidylinositol 4-kinase beta (Homo sapiens, UniProt Q9UBF8); assay: Selectivity interaction (Ambit KINOMEscan and KiNATiv profiling in Jurkat cells) EUB0000090b PI4KB; type: cell-based; settings: at 1 µM
[2] = target: T1, MAP/microtubule affinity-regulating kinase 4 (Homo sapiens) (UniProt Q96L34); assay: Selectivity interaction (Kinase panel (DSF assay)) EUB0001559a MARK4
T1 sequence (whole entry): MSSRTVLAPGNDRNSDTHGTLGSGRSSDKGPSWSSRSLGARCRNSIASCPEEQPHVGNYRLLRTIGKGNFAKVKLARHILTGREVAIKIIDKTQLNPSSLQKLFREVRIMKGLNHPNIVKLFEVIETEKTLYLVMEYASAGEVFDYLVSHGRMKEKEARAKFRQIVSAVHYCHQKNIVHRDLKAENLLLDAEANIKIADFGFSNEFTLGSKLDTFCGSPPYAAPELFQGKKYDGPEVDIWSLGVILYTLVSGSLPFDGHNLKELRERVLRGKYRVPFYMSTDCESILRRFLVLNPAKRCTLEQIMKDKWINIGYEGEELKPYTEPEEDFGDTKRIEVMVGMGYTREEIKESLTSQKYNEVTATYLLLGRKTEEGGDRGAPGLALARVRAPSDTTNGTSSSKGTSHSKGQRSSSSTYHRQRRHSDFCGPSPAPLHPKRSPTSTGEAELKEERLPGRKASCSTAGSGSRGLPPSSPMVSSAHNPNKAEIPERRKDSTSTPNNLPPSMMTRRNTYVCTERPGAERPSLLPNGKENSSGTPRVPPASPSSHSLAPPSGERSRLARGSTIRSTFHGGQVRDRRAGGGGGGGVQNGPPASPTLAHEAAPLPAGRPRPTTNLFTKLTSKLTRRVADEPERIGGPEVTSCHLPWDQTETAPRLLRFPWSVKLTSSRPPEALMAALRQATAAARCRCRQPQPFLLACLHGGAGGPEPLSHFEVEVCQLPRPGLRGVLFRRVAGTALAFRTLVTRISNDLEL

[3] = target: T2, Serine/threonine-protein kinase Nek2 (Homo sapiens) (UniProt P51955); assay: Selectivity interaction (KinomeScan (DiscoverX)) EUB0001619a NEK2; settings: at 1 µM
T2 sequence (whole entry): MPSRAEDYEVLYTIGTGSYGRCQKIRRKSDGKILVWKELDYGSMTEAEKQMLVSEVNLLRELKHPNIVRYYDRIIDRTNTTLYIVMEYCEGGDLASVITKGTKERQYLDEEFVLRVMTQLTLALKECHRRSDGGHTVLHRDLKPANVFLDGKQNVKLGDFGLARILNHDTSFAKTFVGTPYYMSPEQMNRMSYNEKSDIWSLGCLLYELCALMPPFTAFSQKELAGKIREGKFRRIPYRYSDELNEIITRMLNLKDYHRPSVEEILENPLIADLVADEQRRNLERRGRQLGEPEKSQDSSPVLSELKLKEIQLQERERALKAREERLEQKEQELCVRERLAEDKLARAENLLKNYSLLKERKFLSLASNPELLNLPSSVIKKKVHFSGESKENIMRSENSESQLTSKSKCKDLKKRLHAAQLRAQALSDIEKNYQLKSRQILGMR

[4] = target: T3, Serine/threonine-protein kinase Sgk3 (Homo sapiens) (UniProt Q96BR1); assay: Selectivity interaction (ActivX KiNativ screen (ex vivo kinase selectivity in human PBMCs)) EUB0001619a SGK3; type: cell-based; settings: PBMC, at 1 µM
T3 sequence (whole entry): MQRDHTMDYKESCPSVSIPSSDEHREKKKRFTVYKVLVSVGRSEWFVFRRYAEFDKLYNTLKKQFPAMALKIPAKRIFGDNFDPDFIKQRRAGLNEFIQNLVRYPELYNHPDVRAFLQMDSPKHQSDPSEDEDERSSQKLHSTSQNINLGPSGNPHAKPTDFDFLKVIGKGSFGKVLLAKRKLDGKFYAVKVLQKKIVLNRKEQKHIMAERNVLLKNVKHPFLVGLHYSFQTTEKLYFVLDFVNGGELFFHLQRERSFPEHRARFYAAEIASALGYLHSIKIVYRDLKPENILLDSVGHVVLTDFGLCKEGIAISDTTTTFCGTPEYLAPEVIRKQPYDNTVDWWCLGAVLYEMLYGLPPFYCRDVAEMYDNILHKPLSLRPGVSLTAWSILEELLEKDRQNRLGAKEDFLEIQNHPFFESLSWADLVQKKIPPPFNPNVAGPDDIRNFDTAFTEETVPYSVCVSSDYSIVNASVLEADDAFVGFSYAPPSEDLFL

[5] = target: Serine/threonine-protein kinase 10 (Homo sapiens) (UniProt O94804); assay: Selectivity interaction (ActivX KiNativ screen (ex vivo kinase selectivity in human PBMCs)) EUB0001619a STK10; type: cell-based; settings: PBMC, at 1 µM
[6] = target: Serine/threonine-protein kinase MRCK alpha (Homo sapiens) (UniProt Q5VT25); settings: at 10 µM
[7] = target: Tyrosine-protein kinase Lyn (Homo sapiens, UniProt P07948)
[8] = target: Mitogen-activated protein kinase 10 (Homo sapiens, UniProt P53779); assay: Selectivity interaction (KinomeScan (DiscoverX)) EUB0001049a MAPK10; settings: at 1 µM
[9] = target: T4, Muscarinic acetylcholine receptor M1 (Homo sapiens) (UniProt P11229); assay: Selectivity interaction (Panel of kinases, GPCRs, ion channels and transporters (enzymatic assay)) EUB0000266bCl CHRM1
T4 sequence (whole entry): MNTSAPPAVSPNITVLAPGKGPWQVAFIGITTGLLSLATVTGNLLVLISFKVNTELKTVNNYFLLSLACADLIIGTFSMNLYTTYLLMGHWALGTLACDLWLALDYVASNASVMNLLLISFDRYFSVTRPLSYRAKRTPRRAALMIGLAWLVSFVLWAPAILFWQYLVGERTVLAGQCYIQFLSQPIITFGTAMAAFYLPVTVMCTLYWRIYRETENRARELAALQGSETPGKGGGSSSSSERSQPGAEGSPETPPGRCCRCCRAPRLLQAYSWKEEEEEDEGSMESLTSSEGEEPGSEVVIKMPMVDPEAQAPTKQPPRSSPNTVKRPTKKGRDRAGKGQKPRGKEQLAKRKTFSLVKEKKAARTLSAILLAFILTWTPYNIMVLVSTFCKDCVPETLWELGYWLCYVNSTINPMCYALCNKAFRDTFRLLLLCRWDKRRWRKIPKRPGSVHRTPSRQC

Sequence of Serine/threonine-protein kinase MRCK alpha (Homo sapiens) (Q5VT25 whole entry): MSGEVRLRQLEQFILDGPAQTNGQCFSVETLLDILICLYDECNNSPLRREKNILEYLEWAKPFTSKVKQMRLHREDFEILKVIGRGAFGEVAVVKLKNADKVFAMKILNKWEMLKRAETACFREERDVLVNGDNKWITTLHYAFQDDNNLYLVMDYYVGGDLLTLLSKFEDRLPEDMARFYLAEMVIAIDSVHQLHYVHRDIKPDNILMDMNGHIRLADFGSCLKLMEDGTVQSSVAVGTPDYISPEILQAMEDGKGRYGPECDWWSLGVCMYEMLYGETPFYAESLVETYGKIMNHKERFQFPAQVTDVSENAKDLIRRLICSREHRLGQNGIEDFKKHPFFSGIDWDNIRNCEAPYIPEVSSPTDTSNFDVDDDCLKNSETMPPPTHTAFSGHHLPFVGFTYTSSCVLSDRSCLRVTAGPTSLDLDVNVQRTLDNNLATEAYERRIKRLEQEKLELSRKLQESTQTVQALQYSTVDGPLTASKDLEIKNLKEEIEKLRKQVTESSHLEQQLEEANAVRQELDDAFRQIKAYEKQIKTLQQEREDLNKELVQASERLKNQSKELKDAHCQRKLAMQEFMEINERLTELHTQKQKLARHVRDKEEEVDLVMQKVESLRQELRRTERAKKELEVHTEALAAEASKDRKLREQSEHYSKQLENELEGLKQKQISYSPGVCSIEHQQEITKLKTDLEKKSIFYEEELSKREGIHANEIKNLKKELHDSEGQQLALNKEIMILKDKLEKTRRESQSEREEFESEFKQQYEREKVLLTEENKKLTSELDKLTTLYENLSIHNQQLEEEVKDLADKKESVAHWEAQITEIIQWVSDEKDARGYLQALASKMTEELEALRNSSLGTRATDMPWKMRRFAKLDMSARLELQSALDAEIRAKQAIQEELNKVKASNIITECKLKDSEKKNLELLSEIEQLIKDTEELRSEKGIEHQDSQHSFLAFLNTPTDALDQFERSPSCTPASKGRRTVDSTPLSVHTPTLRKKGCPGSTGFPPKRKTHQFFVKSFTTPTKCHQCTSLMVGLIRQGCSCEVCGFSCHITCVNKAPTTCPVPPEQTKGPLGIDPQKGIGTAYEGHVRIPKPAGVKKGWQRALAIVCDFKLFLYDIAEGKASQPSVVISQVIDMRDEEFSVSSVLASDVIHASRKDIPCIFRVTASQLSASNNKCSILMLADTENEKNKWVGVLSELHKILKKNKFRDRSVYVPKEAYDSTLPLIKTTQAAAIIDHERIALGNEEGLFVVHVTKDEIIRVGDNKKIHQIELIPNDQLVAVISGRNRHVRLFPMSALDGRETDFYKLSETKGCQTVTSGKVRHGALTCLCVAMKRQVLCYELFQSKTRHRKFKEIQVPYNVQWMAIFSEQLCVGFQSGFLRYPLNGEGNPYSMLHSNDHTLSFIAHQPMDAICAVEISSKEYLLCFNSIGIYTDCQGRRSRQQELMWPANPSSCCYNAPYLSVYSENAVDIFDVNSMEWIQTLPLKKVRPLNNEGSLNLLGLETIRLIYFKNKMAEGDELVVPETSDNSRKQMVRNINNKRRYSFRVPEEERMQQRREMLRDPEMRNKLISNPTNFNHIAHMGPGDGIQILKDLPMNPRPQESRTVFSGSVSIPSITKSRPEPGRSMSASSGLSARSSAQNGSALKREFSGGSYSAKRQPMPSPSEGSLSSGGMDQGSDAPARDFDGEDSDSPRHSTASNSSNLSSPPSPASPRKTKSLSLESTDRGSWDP
Sequence of Serine/threonine-protein kinase 10 (Homo sapiens) (O94804 whole entry, looked up): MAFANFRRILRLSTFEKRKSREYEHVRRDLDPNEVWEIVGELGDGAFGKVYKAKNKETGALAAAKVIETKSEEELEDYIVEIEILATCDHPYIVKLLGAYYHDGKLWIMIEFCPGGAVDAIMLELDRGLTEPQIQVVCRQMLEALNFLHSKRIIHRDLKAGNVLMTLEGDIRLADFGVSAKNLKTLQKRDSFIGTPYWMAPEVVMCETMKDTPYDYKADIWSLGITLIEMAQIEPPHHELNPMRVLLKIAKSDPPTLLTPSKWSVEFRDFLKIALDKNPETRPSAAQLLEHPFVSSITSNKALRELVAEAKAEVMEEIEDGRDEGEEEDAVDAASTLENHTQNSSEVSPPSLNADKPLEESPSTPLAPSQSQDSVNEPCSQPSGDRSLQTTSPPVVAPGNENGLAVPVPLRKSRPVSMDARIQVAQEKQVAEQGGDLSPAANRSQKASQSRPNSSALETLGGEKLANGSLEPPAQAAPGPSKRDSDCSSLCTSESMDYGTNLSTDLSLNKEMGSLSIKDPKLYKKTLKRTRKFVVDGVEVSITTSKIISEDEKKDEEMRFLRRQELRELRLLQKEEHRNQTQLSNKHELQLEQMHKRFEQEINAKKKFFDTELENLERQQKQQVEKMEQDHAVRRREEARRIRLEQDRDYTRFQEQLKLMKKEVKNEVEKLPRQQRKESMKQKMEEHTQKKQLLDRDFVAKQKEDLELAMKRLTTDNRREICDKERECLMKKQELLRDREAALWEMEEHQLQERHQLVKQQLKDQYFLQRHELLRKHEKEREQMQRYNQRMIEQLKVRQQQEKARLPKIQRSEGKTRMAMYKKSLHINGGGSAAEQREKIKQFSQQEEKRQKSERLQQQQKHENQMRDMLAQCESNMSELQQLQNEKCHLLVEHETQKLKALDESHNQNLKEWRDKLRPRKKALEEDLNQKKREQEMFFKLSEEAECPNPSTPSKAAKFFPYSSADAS
Sequence of Tyrosine-protein kinase Lyn (P07948 whole entry): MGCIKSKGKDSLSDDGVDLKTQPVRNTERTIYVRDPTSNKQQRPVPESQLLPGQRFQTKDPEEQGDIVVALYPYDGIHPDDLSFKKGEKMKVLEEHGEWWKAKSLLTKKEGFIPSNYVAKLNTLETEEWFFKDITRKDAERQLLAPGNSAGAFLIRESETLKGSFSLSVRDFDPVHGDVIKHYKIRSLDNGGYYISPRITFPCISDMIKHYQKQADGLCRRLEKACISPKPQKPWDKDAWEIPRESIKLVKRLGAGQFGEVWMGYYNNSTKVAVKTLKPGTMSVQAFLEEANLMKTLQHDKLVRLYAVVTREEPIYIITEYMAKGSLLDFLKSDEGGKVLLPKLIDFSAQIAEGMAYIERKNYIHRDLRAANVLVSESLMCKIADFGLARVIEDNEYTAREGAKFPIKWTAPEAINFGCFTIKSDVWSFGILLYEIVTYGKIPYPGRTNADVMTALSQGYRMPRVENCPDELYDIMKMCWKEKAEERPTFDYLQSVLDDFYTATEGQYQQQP
Sequence of Phosphatidylinositol 4-kinase beta (Q9UBF8 2-816 limits assumed): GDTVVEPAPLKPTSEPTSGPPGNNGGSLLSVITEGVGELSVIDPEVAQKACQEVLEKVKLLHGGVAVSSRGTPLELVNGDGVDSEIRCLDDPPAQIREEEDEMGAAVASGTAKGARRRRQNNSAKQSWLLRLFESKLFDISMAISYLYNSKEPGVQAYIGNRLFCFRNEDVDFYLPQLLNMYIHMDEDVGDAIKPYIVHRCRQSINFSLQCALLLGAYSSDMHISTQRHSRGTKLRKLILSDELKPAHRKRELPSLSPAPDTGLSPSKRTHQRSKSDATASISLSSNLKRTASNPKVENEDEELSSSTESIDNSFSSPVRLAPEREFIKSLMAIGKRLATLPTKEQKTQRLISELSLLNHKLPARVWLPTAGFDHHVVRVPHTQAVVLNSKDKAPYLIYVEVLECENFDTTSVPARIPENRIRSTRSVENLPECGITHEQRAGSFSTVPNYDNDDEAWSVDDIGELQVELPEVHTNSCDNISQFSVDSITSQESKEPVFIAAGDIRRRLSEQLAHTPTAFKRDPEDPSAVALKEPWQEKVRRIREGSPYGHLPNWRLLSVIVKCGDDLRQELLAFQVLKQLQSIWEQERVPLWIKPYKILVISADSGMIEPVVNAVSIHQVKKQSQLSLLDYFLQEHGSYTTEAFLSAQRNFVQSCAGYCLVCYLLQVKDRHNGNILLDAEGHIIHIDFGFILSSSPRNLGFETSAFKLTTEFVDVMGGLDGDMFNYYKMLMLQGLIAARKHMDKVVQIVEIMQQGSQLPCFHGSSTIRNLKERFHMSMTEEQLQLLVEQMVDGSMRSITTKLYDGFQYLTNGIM
Sequence of Mitogen-activated protein kinase 10 (P53779 whole entry): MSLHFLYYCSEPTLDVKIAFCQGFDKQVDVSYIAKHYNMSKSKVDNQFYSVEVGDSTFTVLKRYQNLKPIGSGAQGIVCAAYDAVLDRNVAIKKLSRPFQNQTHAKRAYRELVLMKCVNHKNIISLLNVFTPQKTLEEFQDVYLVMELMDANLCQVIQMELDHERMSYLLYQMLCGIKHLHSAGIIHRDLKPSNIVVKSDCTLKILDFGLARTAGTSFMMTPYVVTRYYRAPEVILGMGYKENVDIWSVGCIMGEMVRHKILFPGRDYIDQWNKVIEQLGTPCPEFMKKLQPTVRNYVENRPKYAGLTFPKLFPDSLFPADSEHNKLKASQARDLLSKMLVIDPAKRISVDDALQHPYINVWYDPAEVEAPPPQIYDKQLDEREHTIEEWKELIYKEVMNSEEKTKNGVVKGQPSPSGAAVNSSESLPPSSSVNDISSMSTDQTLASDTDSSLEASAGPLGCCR

SMILES: CN(C)C/C=C/C(=O)Nc1ccc(C(=O)N2CCCC(Nc3ncc(Cl)c(-c4c[nH]c5ccccc45)n3)C2)cc1 (centres undefined)
% of control [1]: 88%

dTM [2]: 0.9 K
SMILES: CN(C(=O)c1cnn2cccnc12)c1cc2c(cc1N1CCOCC1)C(=O)N(C[C@@H](F)C(C)(C)O)C2

SMILES: N#Cc1cccc(-c2c[nH]c3ncnc(N4CCOCC4)c23)c1
% of control [3]: 100% | % of inhibition [4]: -1% | % of inhibition [5]: 77%

SMILES: Cc1cc([C@@H](C)Nc2ccccc2C(=O)O)c2nc(N3CCOCC3)cc(=O)n2c1 [AZD-6482]
% of control [6]: 96%

IC50 [7]: > 10 µM
SMILES: CCc1cccc(CC)c1NC(=O)c1nn(C)c2c1CCc1cnc(Nc3ccc(C(=O)NC4CCN(C)CC4)cc3OC(F)(F)F)nc1-2

SMILES: COc1cc(Nc2nc(C)cc(-c3cnn4nc(OC)ccc34)n2)cc(C(F)(F)F)c1
% of control [8]: 77%

pXC50 [9]: 4.8 M
SMILES: CCn1c(-c2nc3cc(C(=O)N4CCCC(N)C4)ccc3n2C)cc2ccccc21 (centres undefined)
